# US20170334899A1, “AMINO-SUBSTITUTED ISOTHIAZOLES” (Bayer Pharma Aktiengesellschaft, priority 2014, published 2017)
# pIC50: −log10 of the molar value.
# System: HeLa
# Test: Proliferation assay (crystal violet), HeLa
# Format: cell-based
# Details: Homo sapiens, HeLa, 96 h, HeLa cells; 4 days incubation; crystal violet staining; read-out: IC50 inhibition of proliferation, HeLa
# Procedure, shortened: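 Seed 1000–5000 cells/well, 10% FCS; 24 h later replace medium and add compound (0.001–10 μM, 0.5% DMSO); incubate 4 d; glutaraldehyde fix, 0.1% crystal violet pH 3.0, elute with 10% acetic acid; A595; 4-parameter IC50.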
row,pIC50,SMILES
1,5.19,"Cc1nsc(Nc2cnc3ccccc3n2)c1C(=O)Nc1cccc(NC(=O)C(C)(C)C)c1 [Example 186, N-{3-[(2,2-dimethylpropanoyl)amino]phenyl}-3-methyl-5-(quinoxalin-2-ylamino)-1,2-thiazole-4-carboxamide]"
2,< 5.00,"Cc1nsc(Nc2cnc3ccccc3n2)c1C(=O)Nc1ccc(C(=O)O)cc1 [Example 187, 4-({[3-methyl-5-(quinoxalin-2-ylamino)-1,2-thiazol-4-yl]carbonyl}amino)benzoic acid]"
3,< 5.00,"Cc1nsc(Nc2cnc3ccccc3n2)c1C(=O)Nc1ccccc1S(C)(=O)=O [Example 188, 3-methyl-N-[2-(methylsulfonyl)phenyl]-5-(quinoxalin-2-ylamino)-1,2-thiazole-4-carboxamide]"
4,6.03,"Cc1nsc(Nc2cncc(C(F)(F)F)n2)c1C(=O)Nc1ccc(OC2CCCN(C(=O)OC(C)(C)C)C2)nc1 (stereo not shown) [Example 189, tert-butyl 3-[(5-{[(3-methyl-5-{[6-(trifluoromethyl)pyrazin-2-yl]amino}-1,2-thiazol-4-yl)carbonyl]amino}pyridin-2-yl)oxy]piperidine-1-carboxylate]"
5,6.38,"Cc1nsc(Nc2cncc(C(F)(F)F)n2)c1C(=O)Nc1ccc(OCCCNC(=O)OC(C)(C)C)nc1 [Example 190, tert-butyl {3-[(5-{[(3-methyl-5-{[6-(trifluoromethyl)pyrazin-2-yl]amino}-1,2-thiazoL-4-yl)carbonyl]amino}pyridin-2-yl)oxy]propyl}carbamate]"
6,5.80,"Cc1nsc(Nc2cncc(C(F)(F)F)n2)c1C(=O)Nc1ccc(OCCNC(=O)OC(C)(C)C)nc1 [Example 191, tert-butyl {2-[(5-{[(3-methyl-5-{[6-(trifluoromethyl)pyrazin-2-yl]amino}-1,2-thiazol-4-yl)carbonyl]amino}pyridin-2-yl)oxy]ethyl}carbamate]"
7,5.92,"Cc1nsc(Nc2cnc(C(F)(F)F)cn2)c1C(=O)Nc1ccc(OCCNC(=O)OC(C)(C)C)nc1 [Example 192, tert-butyl {2-[(5-{[(3-methyl-5-{[5-(trifluoromethyl)pyrazin-2-yl]amino}-1,2-thiazol-4-yl)carbonyl]amino}pyridin-2-yl)oxy]ethyl}carbamate]"
8,5.57,"Cc1nsc(Nc2cncc(C(F)(F)F)n2)c1C(=O)Nc1ccc(C(=O)OC(C)(C)C)cc1 [Example 193, tert-butyl tert-butyl 4-{[(3-methyl-5-{[6-(trifluoromethyl)pyrazin-2-yl]amino}-1,2-thiazol-4-yl)carbonyl]amino}benzoate]"
9,5.60,"Cc1nsc(Nc2cncc(C(F)(F)F)n2)c1C(=O)Nc1cccc(S(C)(=O)=O)c1 [Example 194, 3-methyl-N-[3-(methylsulfonyl)phenyl]-5-{[6-(trifluoromethyl)pyrazin-2-yl]amino}-1,2-thiazole-4-carboxamide]"
10,5.51,"Cc1nsc(Nc2cnc(C(F)(F)F)cn2)c1C(=O)Nc1cccc(S(C)(=O)=O)c1 [Example 195, 3-methyl-N-[3-(methylsulfonyl)phenyl]-5-{[5-(trifluoromethyl)pyrazin-2-yl]amino}-1,2-thiazole-4-carboxamide]"
11,< 5.00,"Cc1nsc(Nc2cncc(C(F)(F)F)n2)c1C(=O)Nc1ccc(OCCN)nc1 [Example 196, N-[6-(2-aminoethoxy)pyridin-3-yl]-3-methyl-5-{[6-(trifluoromethyl)pyrazin-2-yl]amino}-1,2-thiazole-4-carboxamide]"
12,5.12,"Cc1nsc(Nc2cnc(C(F)(F)F)cn2)c1C(=O)Nc1ccc(OCCN)nc1 [Example 197, N-[6-(2-aminoethoxy)pyridin-3-yl]-3-methyl-5-{[5-(trifluoromethyl)pyrazin-2-yl]amino}-1,2-thiazole-4-carboxamide]"
13,5.17,"Cc1nsc(Nc2cnc3ccccc3n2)c1C(=O)Nc1ccc(OCCC(=O)OC(C)(C)C)nc1 [Example 198, tert-butyl 3-{[5-({[3-methyl-5-(quinoxalin-2-ylamino)-1,2-thiazol-4-yl]carbonyl}amino)pyridin-2-yl]oxy}propanoate]"
14,5.06,"Cc1nsc(Nc2ccc(C#N)cn2)c1C(=O)Nc1ccc(OCCC(=O)OC(C)(C)C)nc1 [Example 199, tert-butyl 3-({5-[({5-[(5-cyanopyridin-2-yl)amino]-3-methyl-1,2-thiazol-4-yl}carbonyl)amino]pyridin-2-yl}oxy)propanoate]"
15,< 5.00,"Cc1nsc(Nc2cc(C#N)ccn2)c1C(=O)Nc1ccc(OCCC(=O)OC(C)(C)C)nc1 [Example 200, tert-butyl 3-({5-[({5-[(4-cyanopyridin-2-yl)amino]-3-methyl-1,2-thiazol-4-yl}carbonyl)amino]pyridin-2-yl}oxy)propanoate]"
16,< 5.00,"Cc1nsc(Nc2cnc3ccccc3n2)c1C(=O)Nc1ccc(C(N)=O)c(F)c1 [Example 201, N-(4-carbamoyl-3-fluorophenyl)-3-methyl-5-(quinoxalin-2-ylamino)-1,2-thiazole-4-carboxamide]"
17,< 5.00,"Cc1nsc(Nc2cnc3ccccc3n2)c1C(=O)Nc1ccc(F)c(C(N)=O)c1 [Example 202, N-(3-carbamoyl-4-fluorophenyl)-3-methyl-5-(quinoxalin-2-ylamino)-1,2-thiazole-4-carboxamide]"

# The next lines start with the compound.
row,SMILES,pIC50
1,"Cc1nsc(Nc2cncc(C(F)(F)F)n2)c1C(=O)Nc1ccc(OC2CCNCC2)nc1 [Example 13, 3-Methyl-N-[6-(piperidin-4-yloxy)pyridin-3-yl]-5-{[6-(trifluoromethyl)pyrazin-2-yl]-amino}-1,2-thiazole-4-carboxamide]",5.00
2,"Cc1nsc(Nc2cncc(C(F)(F)F)n2)c1C(=O)Nc1ccc(OC2CCN(CCF)CC2)nc1 [Example 14, N-(6-{[1-(2-Fluoroethyl)piperidin-4-yl]oxy}pyridin-3-yl)-3-methyl-5-{[6-(trifluoro-methyl)pyrazin-2-yl]amino}-1,2-thiazole-4-carboxamide]",5.82
3,"CC(=O)N1CCC(Oc2ccc(NC(=O)c3c(C)nsc3Nc3cncc(C(F)(F)F)n3)cn2)CC1 [Example 17, N-{6-[(1-Acetylpiperidin-4-yl)oxy]pyridin-3-yl}-3-methyl-5-{[6-(trifluoromethyl)-pyrazin-2-yl]amino}-1,2-thiazole-4-carboxamide]",5.62
4,"Cc1nsc(Nc2cnc3ccccc3n2)c1C(=O)Nc1ccc(OC2CCNCC2)nc1 [Example 19, 3-Methyl-N-[6-(piperidin-4-yloxy)pyridin-3-yl]-5-(quinoxalin-2-ylamino)-1,2-thiazole-4-carboxamide]",5.46
5,"Cc1nsc(Nc2cnc3ccccc3n2)c1C(=O)Nc1ccc(OC2CCN(CC(F)F)CC2)nc1 [Example 20, N-(6-{[1-(2,2-difluoroethyl)piperidin-4-yl]oxy}pyridin-3-yl)-3-methyl-5-(quinoxalin-2-ylamino)-1,2-thiazole-4-carboxamide]",5.82
6,"CCN(CC)CCNC(=O)c1cccc(NC(=O)c2c(C)nsc2Nc2cc(C#N)ccn2)c1 [Example 174, 5-[(4-cyanopyridin-2-yl)amino]-N-(3-{[2-(diethylamino)ethyl]carbamoyl}phenyl)-3-methyl-1,2-thiazole-4-carboxamide]",< 5.00
7,"Cc1nsc(Nc2cc(C#N)ccn2)c1C(=O)Nc1cccc(C(=O)NC2CC2)c1 [Example 175, 5-[(4-cyanopyridin-2-yl)amino]-N-[3-(cyclopropylcarbamoyl)phenyl]-3-methyl-1,2-thiazole-4-carboxamide]",< 5.00
8,"COC(=O)CCc1cccc(NC(=O)c2c(C)nsc2Nc2ccc(C#N)cn2)c1 [Example 176, methyl 3-{3-[({5-[(5-cyanopyridin-2-yl)amino]-3-methyl-1,2-thiazol-4-yl}carbonyl)amino]phenyl}propanoate]",5.30
9,"Cc1nsc(Nc2cc(C#N)ccn2)c1C(=O)Nc1ccc(NC(=O)OC(C)(C)C)cc1 [Example 177, tert-butyl {4-[({5-[(4-cyanopyridin-2-yl)amino]-3-methyl-1,2-thiazol-4-yl}carbonyl)amino]phenyl}carbamate]",< 5.00
10,"Cc1nsc(Nc2cnc3ccccc3n2)c1C(=O)Nc1cccc(NC(=O)OC(C)(C)C)c1 [Example 178, tert-butyl [3-({[3-methyl-5-(quinoxalin-2-ylamino)-1,2-thiazol-4-yl]carbonyl}amino)-phenyl]carbamate]",5.48
11,"Cc1nsc(Nc2ccc(C#N)cn2)c1C(=O)Nc1cccc(NC(=O)OC(C)(C)C)c1 [Example 179, tert-butyl {3-[({5-[(5-cyanopyridin-2-yl)amino]-3-methyl-1,2-thiazol-4-yl}carbonyl)amino]phenyl}carbamate]",5.42
12,"Cc1nsc(Nc2ccc(C#N)cn2)c1C(=O)Nc1cccc(N)c1 [Example 180, N-(3-aminophenyl)-5-[(5-cyanopyridin-2-yl)amino]-3-methyl-1,2-thiazole-4-carboxamide]",< 5.00
13,"Cc1nsc(Nc2cnc3ccccc3n2)c1C(=O)Nc1ccc(C(=O)OC(C)(C)C)cc1 [Example 181, tert-butyl 4-({[3-methyl-5-(quinoxalin-2-ylamino)-1,2-thiazol-4-yl]carbonyl}amino)benzoate]",6.01
14,"Cc1nsc(Nc2cc(C#N)ccn2)c1C(=O)Nc1ccc(C(=O)OC(C)(C)C)cc1 [Example 182, tert-butyl 4-[({5-[(4-cyanopyridin-2-yl)amino]-3-methyl-1,2-thiazol-4-yl}carbonyl)amino]benzoate]",6.18
15,"Cc1nsc(Nc2cc(C#N)ccn2)c1C(=O)Nc1cccc(NC(=O)C(C)(C)C)c1 [Example 183, 5-[(4-cyanopyridin-2-yl)amino]-N-{3-[(2,2-dimethylpropanoyl)amino]phenyl}-3-methyl-1,2-thiazole-4-carboxamide]",5.30
16,"Cc1nsc(Nc2cnccn2)c1C(=O)Nc1ccc(C(=O)OC(C)(C)C)cc1 [Example 184, tert-butyl 4-({[3-methyl-5-(pyrazin-2-ylamino)-1,2-thiazol-4-yl]carbonyl}amino)benzoate]",5.42
17,"Cc1nsc(Nc2cnc3ccccc3n2)c1C(=O)Nc1ccc(NC(=O)C(C)(C)C)cc1 [Example 185, N-{4-[(2,2-dimethylpropanoyl)amino]phenyl}-3-methyl-5-(quinoxalin-2-ylamino)-1,2-thiazole-4-carboxamide]",< 5.00
